Our source for the GI50 and TGI values is PubChem BioAssay (NCI).

Broadly, the GI50 is the concentration at which growth is held to half of that of the control. Usually TGI stands for the concentration at which net growth stops. A lower TGI goes with more potent growth arrest.

Test systems include UACC-257 melanoma; K-562 leukemia; HS 578T breast; MDA-MB-435; BT-549 breast; NCI-H23 lung; A498 renal; HOP-92 NSCLC; M14 melanoma; SK-OV-3 ovarian.
What all share (assay): DTP human tumour cell line panel, 48 h

Values joined by “and” are separate entries in the source; they are usually repeats but may differ in a detail not shown here. Identical values can stand only once.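 Values below derive from 48-hour exposures of cells grown in 96-well plates, with endpoints linearly interpolated between the two concentrations bracketing the appropriate inhibition level. At the GI50, growth is halved. At the TGI there is no net growth.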 Where only a bound is given, the exact number is not on record here.

In the case of `CNC(=O)CN1CCC(Oc2cc3c(Nc4cccc(Cl)c4F)ncnc3cc2OC)CC1`, the GI50 with UACC-257 melanoma was 13700 nM and > 10000 nM; with K-562 leukemia it was 16800 nM and > 10000 nM; with HS 578T breast it was 3.35 µM and 2.96 µM; with MDA-MB-435, 21500 nM and > 8410 nM; in the test on BT-549 breast, 16200 nM and > 10000 nM; in the test with NCI-H23 lung, 18200 nM and > 7110 nM. In addition, the GI50 in the test with A498 renal is 1100 nM and 1330 nM; in the test with HOP-92 NSCLC it was 1900 nM and 1290 nM; with M14 melanoma, 18000 nM and > 8270 nM; in the test with SK-OV-3 ovarian, 167 nM and 153 nM. Besides, the TGI was 29.2 µM and > 10 µM in the test on UACC-257 melanoma; 45.6 µM and > 10 µM with K-562 leukemia; 21.2 µM and > 10 µM in the test on HS 578T breast; over 62.4 µM in the test with MDA-MB-435; 38.9 µM and > 10 µM with BT-549 breast; over 58.5 µM in the test on NCI-H23 lung. Moreover, the TGI in the test with A498 renal was 11.5 µM and > 10 µM; in the test on HOP-92 NSCLC, 16.4 µM and > 9.33 µM; in the test with M14 melanoma, 34.1 µM and > 10 µM; in the test with SK-OV-3 ovarian it was 5.73 µM and 1.82 µM.

For `CCN1CCN(c2ccc(Nc3ncc4ccc5ncn(C(C)C)c5c4n3)nc2)CC1`, the GI50 in the test on UACC-257 melanoma is 283 nM; with K-562 leukemia it was 132 nM; in the test with HS 578T breast it was 0.155 µM; in the test on MDA-MB-435 it was 132 nM; in the test with BT-549 breast it was 218 nM; in the test with NCI-H23 lung it was 211 nM. The GI50 in the test on A498 renal is under 33.7 nM; in the test with HOP-92 NSCLC, 155 nM; in the test with M14 melanoma, 124 nM; in the test with SK-OV-3 ovarian it was 271 nM. Besides, the TGI in the test with UACC-257 melanoma turned out to be 27.1 µM; in the test on HS 578T breast it was 0.618 µM; in the test on MDA-MB-435 it was 1.61 µM; in the test with BT-549 breast, 0.687 µM; with NCI-H23 lung, 0.85 µM; with A498 renal, 0.241 µM. The TGI with HOP-92 NSCLC came to 0.474 µM; in the test on M14 melanoma, 1.34 µM; with SK-OV-3 ovarian, 0.847 µM.

Turning to `CC1=CC(=O)c2ccc(C)cc2C1=O`, the TGI in the test on UACC-257 melanoma was 26.6 µM; in the test with K-562 leukemia it was over 100 µM; in the test with HS 578T breast it was over 100 µM; with MDA-MB-435 it was 5.78 µM; in the test with BT-549 breast, 25 µM; with NCI-H23 lung it was 23.9 µM. Further, the TGI is 34.4 µM in the test on A498 renal, 4.2 µM with HOP-92 NSCLC, 30.8 µM with M14 melanoma and 30.5 µM in the test on SK-OV-3 ovarian.

For `Cn1c(=O)c2[nH]c(CCCCc3nc4c([nH]3)c(=O)n(C)c(=S)n4C)nc2n(C)c1=S`, the TGI in the test on UACC-257 melanoma, in the test with K-562 leukemia, in the test on HS 578T breast, with MDA-MB-435, in the test with BT-549 breast and with NCI-H23 lung was over 100 µM in each case. In addition, the total growth inhibition concentration (TGI) with A498 renal, in the test on HOP-92 NSCLC, in the test with M14 melanoma and with SK-OV-3 ovarian was over 100 µM each time.

On to `Cc1nc2sc(C(=O)Nc3cccc(Br)c3)c(N)c2cc1C(O)c1ccccc1` (centres undefined), for which the GI50 is 847 nM in the test with UACC-257 melanoma; 364 nM with K-562 leukemia; 0.424 µM in the test with HS 578T breast; 199 nM in the test on MDA-MB-435; 1750 nM in the test on BT-549 breast; 1130 nM in the test on NCI-H23 lung. Besides, the GI50 in the test with A498 renal is 219 nM; in the test on HOP-92 NSCLC, 4270 nM; with M14 melanoma, 466 nM; in the test with SK-OV-3 ovarian, 1760 nM. In addition, the TGI is 25.2 µM in the test on UACC-257 melanoma; over 42.7 µM in the test on K-562 leukemia; 9.21 µM in the test on HS 578T breast; 0.449 µM in the test with MDA-MB-435; 19.9 µM in the test with BT-549 breast; 17.9 µM in the test with NCI-H23 lung. For the same compound, the TGI came out at 0.746 µM with A498 renal, 32.4 µM with HOP-92 NSCLC, 29.7 µM with M14 melanoma and 19.1 µM with SK-OV-3 ovarian.

Turning to `CC(=O)[O][Bi]([c]1ccccc1)[c]1ccccc1`, the GI50 with UACC-257 melanoma was 11200 nM; in the test on K-562 leukemia, 2750 nM; in the test with HS 578T breast, 24.9 µM; in the test on MDA-MB-435, 7260 nM; in the test on BT-549 breast it was 2940 nM; with NCI-H23 lung, 11500 nM. Also, the GI50 in the test with A498 renal is 18200 nM; in the test on HOP-92 NSCLC it was 1330 nM; in the test on M14 melanoma, 11400 nM; with SK-OV-3 ovarian, 16600 nM. Besides, the TGI is 23.6 µM with UACC-257 melanoma; 14.5 µM in the test with K-562 leukemia; 71.9 µM in the test with HS 578T breast; 22.2 µM in the test on MDA-MB-435; 9.32 µM in the test on BT-549 breast; 27.8 µM with NCI-H23 lung. In addition, the TGI came to 32.4 µM in the test on A498 renal, 4.28 µM in the test on HOP-92 NSCLC, 24.5 µM in the test with M14 melanoma and 30.5 µM in the test with SK-OV-3 ovarian.

Take `Nc1nc(-c2cccs2)cs1`: the TGI in the test on UACC-257 melanoma, in the test on K-562 leukemia, with HS 578T breast, in the test with MDA-MB-435, with BT-549 breast and with NCI-H23 lung was over 100 µM throughout. Moreover, the TGI with A498 renal, in the test on HOP-92 NSCLC, in the test with M14 melanoma and in the test with SK-OV-3 ovarian was over 100 µM throughout.

With `Clc1ccc2c(NCCNc3nc(N4CCCC4)nc4ccccc34)ccnc2c1`, the GI50 with UACC-257 melanoma was 1960 nM; with K-562 leukemia, 118 nM; in the test on HS 578T breast, 2.34 µM; with MDA-MB-435, 1600 nM; in the test on BT-549 breast, 2010 nM; in the test with NCI-H23 lung it was 2050 nM. For the same compound, the GI50 with A498 renal is 1800 nM; in the test with HOP-92 NSCLC, 1230 nM; with M14 melanoma, 935 nM; in the test on SK-OV-3 ovarian, 1710 nM. For the same compound, the TGI in the test on UACC-257 melanoma came to 3.76 µM; in the test with K-562 leukemia, 3.29 µM; in the test on HS 578T breast, 7 µM; in the test on MDA-MB-435 it was 3.11 µM; in the test on BT-549 breast, 4.98 µM; with NCI-H23 lung, 5.22 µM. Moreover, the total growth inhibition concentration (TGI) came out at 3.4 µM with A498 renal, 2.66 µM in the test on HOP-92 NSCLC, 2.76 µM in the test on M14 melanoma and 3.16 µM in the test on SK-OV-3 ovarian.

As for `N#CSc1ccc(S(N)(=O)=O)cc1`, the TGI in the test with UACC-257 melanoma, in the test on K-562 leukemia, in the test on HS 578T breast, in the test with MDA-MB-435, with BT-549 breast and in the test with NCI-H23 lung was over 100 µM throughout. Moreover, the total growth inhibition concentration (TGI) with A498 renal is over 100 µM; in the test on HOP-92 NSCLC, over 100 µM; with M14 melanoma, 45.5 µM; in the test on SK-OV-3 ovarian, over 100 µM.

Consider `COc1cc(C)c(NC(=O)CN(C)C)cc1Nc1nc(Nc2cccc(F)c2C(N)=O)c2cc[nH]c2n1`, for which the GI50 was 55.5 nM with UACC-257 melanoma; 1410 nM in the test on K-562 leukemia; 3.08 µM in the test with HS 578T breast; 161 nM with MDA-MB-435; 4350 nM in the test on BT-549 breast; 586 nM in the test on NCI-H23 lung. The GI50 in the test on A498 renal is 1250 nM; in the test on HOP-92 NSCLC, 12.4 nM; in the test with M14 melanoma, 1100 nM; in the test on SK-OV-3 ovarian, 2670 nM. The TGI in the test with UACC-257 melanoma stood at 4.05 µM; in the test on K-562 leukemia it was 6.38 µM; in the test with HS 578T breast, 10.2 µM; in the test on MDA-MB-435 it was 2.56 µM; with BT-549 breast it was 18.9 µM; in the test on NCI-H23 lung, 6.02 µM. For the same compound, the TGI with A498 renal came to 6.02 µM; with HOP-92 NSCLC, 2.66 µM; in the test with M14 melanoma, 5.98 µM; in the test on SK-OV-3 ovarian it was 6.29 µM.

For `O=C(O)c1ccccc1Nc1ccc2nnc(-c3ccncc3)n2n1`, the GI50 is 10600 nM with UACC-257 melanoma; 15100 nM in the test on K-562 leukemia; 18.3 µM in the test on HS 578T breast; 4020 nM with MDA-MB-435; 2590 nM with BT-549 breast; 14100 nM in the test on NCI-H23 lung. In addition, the GI50 in the test on A498 renal was 15500 nM; with HOP-92 NSCLC, 16900 nM; with M14 melanoma it was 7030 nM; in the test with SK-OV-3 ovarian, 22000 nM. Further, the TGI in the test with UACC-257 melanoma was 33.6 µM; with K-562 leukemia, over 100 µM; in the test on HS 578T breast it was 53.9 µM; in the test with MDA-MB-435, 23.1 µM; in the test with BT-549 breast, 8.33 µM; in the test with NCI-H23 lung it was 54.2 µM. The TGI in the test with A498 renal was 29.5 µM; with HOP-92 NSCLC, 35.8 µM; in the test on M14 melanoma, 40.9 µM; in the test with SK-OV-3 ovarian it was over 100 µM.
